Test results reported in patent US11725036B2, “Modified lipidated relaxin B chain peptides and their therapeutic use” (Sanofi, priority 2018, dated 2023).
Starred links: 1 amine or outer side, 2 acyl side, 3 side chain; linkers in the order of their positions; H or OH if unused. Non-standard residues stand in square brackets, D forms with d. Residues, ends and D or L forms follow the SMILES beside them. Groups on a side chain read outwards from the residue. *: point of attachment. X3 = CCCCCCCCCCCCCCCCCC(=O)N[C@@H](CCC(=O)N[C@@H](CCC(=O)N[C@@H](CCC(=O)NCCCOCCOCCOCCCNC(=O)CCC(=O)NCCCOCCOCCOCCCNC(=O)CCC(=O)NCCCOCCOCCOCCCN*)C(=O)O)C(=O)O)C(=O)O; X1 = CCCCCCCCCCCCCCCC(=O)N[C@@H](CCC(=O)N[C@@H](CCC(=O)N[C@@H](CCC(=O)NCCCOCCOCCOCCCNC(=O)CCC(=O)NCCCOCCOCCOCCCNC(=O)CCC(=O)NCCCOCCOCCOCCCN*)C(=O)O)C(=O)O)C(=O)O; X9 = CCCCCCCCCCCCCCCC(=O)N[C@@H](CCC(=O)N[C@@H](CCC(=O)NCCCOCCOCCOCCCNC(=O)CCC(=O)NCCCOCCOCCOCCCN*)C(=O)O)C(=O)O; Suc = O=C(CCC(=O)[*:2])[*:1]; αMeK = C[C@](N)(CCCCN)C(=O)O; Aib = CC(C)(N)C(=O)O

Target: T1, RXFP1 (Homo sapiens, UniProt Q9HBX9)
T1 construct: OVCAR5 cells expressing endogenous RXFP1; endogenous in cells; host or cells: OVCAR5
T1 sequence (Q9HBX9 1-757): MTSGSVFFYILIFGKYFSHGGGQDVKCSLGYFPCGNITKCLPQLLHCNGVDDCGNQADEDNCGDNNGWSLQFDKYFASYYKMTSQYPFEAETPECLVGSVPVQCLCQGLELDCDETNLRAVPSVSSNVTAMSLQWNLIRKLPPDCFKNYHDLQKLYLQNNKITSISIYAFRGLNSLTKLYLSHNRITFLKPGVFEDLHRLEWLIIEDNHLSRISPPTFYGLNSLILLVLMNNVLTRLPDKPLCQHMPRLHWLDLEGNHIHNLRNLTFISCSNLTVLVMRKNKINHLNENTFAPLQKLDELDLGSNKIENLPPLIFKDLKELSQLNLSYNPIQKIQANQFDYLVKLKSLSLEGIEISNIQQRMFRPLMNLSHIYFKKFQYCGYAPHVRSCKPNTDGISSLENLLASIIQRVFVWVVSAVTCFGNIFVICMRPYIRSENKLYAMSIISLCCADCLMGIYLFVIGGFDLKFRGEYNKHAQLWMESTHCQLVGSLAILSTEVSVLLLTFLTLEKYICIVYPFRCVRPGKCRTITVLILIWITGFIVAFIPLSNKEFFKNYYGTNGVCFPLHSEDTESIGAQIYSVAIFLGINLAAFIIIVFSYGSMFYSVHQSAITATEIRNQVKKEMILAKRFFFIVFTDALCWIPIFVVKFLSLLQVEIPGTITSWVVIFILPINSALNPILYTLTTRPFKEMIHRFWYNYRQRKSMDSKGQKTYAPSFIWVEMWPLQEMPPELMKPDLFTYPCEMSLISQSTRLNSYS
Test: OVCAR5 cAMP assay (HTRF)
Assay type: cell-based
Conditions: for EC50: OVCAR 5 cells expressing endogenous RXFP1, cAMP readout; for Emax: OVCAR 5 cells, maximal cAMP relative to H2-relaxin
Text: OVCAR5 cells expressing endogenous RXFP1 were used to test RXP1 agonist properties of peptides of the invention, and in particular of the peptides of sequence SEQ ID NO: 1-97.
Since RXFP1 is a Gs coupled GPCR, cAMP was used as readout of RXFP1 activation.
Isobutyl Methyl Xanthine (IBMX) was used to inhibit phosphodiesterase activity facilitating cAMP measurements. HTRF (Homogenous Time Resolved Fluorescence) technology was used to detect cAMP due to its great sensitivity.
In summary, OVCAR5 were grown in regular medium (RPMI) containing 10% fetal calf serum (FCS) and 1% antibiotics (penicillin/streptomycin).
Before the experiments, cells were detached with accutase and incubated for 40 minutes at 37° C. with 1 mM (3-isobutyl-1-methylxanthine) IBMX.
Cells were then distributed in 384 black well plates containing increasing concentrations of the different peptides in a fix volume of medium (without FCS).
After an incubation of 30 min at 37° C. in an humid incubator in 5% CO2, the reaction was stopped by adding a fixed volume of a solution containing a lysis buffer and cAMP-D2 (cAMP labeled with the dye d2) and the anti cAMP antibody linked to Europium and used for cAMP detection.
Readout of the experiment were performed on a fluorimeter allowing HTRF measurement. Activation curves were generated by plotting the intracellular value of cAMP versus log 10 of the compound concentration.
The 50% activation concentration (EC50) was calculated by nonlinear regression using the sigmoidal dose-response (variable slope) equation with Prism 5 software.
Emax % was determined as the maximal intracellular value of cAMP for test compound (upper limit of cAMP vs concentration curve) divided by the maximal intracellular value of cAMP for H2-relaxin determined in the same test occasion multiplied by 100. Emax %=100×[cAMPtest cpd]/[cAMPH2-Rlx]

| Structure (SMILES) | EC50 [nM] | Emax [%] |
| --- | --- | --- |
| CCCCCCCCCCCCCCCC(=O)N[C@@H](CCC(=O)N[C@@H](CCC(=O)N[C@@H](CCC(=O)NCCCOCCOCCOCCCNC(=O)CCC(=O)NCCCOCCOCCOCCCNC(=O)CCC(=O)NCCCOCCOCCOCCCNC(=O)CCC(=O)NCCCC[C@H](NC(=O)CNC(=O)[C@H](CCC(=O)O)NC(=O)C(C)(C)NC(=O)C(C)(C)NC(=O)[C@@H](NC(=O)[C@H](CCC(N)=O)NC(=O)[C@H](CCCCNC(C)=O)NC(=O)[C@H](CCCNC(=N)N)NC(=O)[C@@H](NC(=O)[C@H](CCCCN)NC(=O)[C@H](CCC(=O)O)NC(=O)[C@H](CCCNC(=N)N)NC(=O)CNC(=O)[C@H](CCC(=O)O)NC(=O)[C@H](CC(C)C)NC(C)=O)C(C)C)[C@@H](C)CC)C(=O)N[C@@H](CO)C(=O)N[C@H](C(=O)N[C@@H](Cc1c[nH]c2ccccc12)C(=O)N[C@@H](CO)C(=O)NC(C)(C)C(=O)N[C@@H](CCCNC(=N)N)C(=O)N[C@@H](CCCCN)C(=O)N[C@@H](CCCCNC(C)=O)C(N)=O)[C@@H](C)O)C(=O)O)C(=O)O)C(=O)O [compound 65] (Ac-LEGREKVRK(Ac)QI[Aib][Aib]EGK([Suc-X1])STWS[Aib]RKK(Ac)-NH2) | 1.19 | 95 |
| CCCCCCCCCCCCCCCC(=O)N[C@@H](CCC(=O)N[C@@H](CCC(=O)NCCCOCCOCCOCCCNC(=O)CCC(=O)NCCCOCCOCCOCCCNC(=O)CCC(=O)NCCCC[C@H](NC(=O)CNC(=O)[C@H](CCC(=O)O)NC(=O)C(C)(C)NC(=O)C(C)(C)NC(=O)[C@@H](NC(=O)[C@H](CCCCNC(C)=O)NC(=O)[C@H](C)NC(=O)[C@H](CCCNC(=N)N)NC(=O)[C@@H](NC(=O)[C@H](CCCCN)NC(=O)[C@H](CCC(=O)O)NC(=O)[C@H](CCCNC(=N)N)NC(=O)CNC(=O)[C@H](CCC(=O)O)NC(=O)[C@H](CC(C)C)NC(C)=O)C(C)C)[C@@H](C)CC)C(=O)N[C@@H](CO)C(=O)N[C@H](C(=O)N[C@@H](Cc1ccccc1)C(=O)N[C@@H](CO)C(=O)N[C@@](C)(CCCCN)C(=O)N[C@@H](CCCNC(=N)N)C(=O)N[C@@H](C)C(=O)N[C@@H](CCCCNC(C)=O)C(N)=O)[C@@H](C)O)C(=O)O)C(=O)O [compound 9] (Ac-LEGREKVRAK(Ac)I[Aib][Aib]EGK([Suc-X9])STFS[αMeK]RAK(Ac)-NH2) | 0.7 | 93 |
| CCCCCCCCCCCCCCCC(=O)N[C@@H](CCC(=O)N[C@@H](CCC(=O)N[C@@H](CCC(=O)NCCCOCCOCCOCCCNC(=O)CCC(=O)NCCCOCCOCCOCCCNC(=O)CCC(=O)NCCCOCCOCCOCCCNC(=O)CCC(=O)NCCCC[C@H](NC(=O)CNC(=O)[C@H](CCC(=O)O)NC(=O)C(C)(C)NC(=O)C(C)(C)NC(=O)[C@@H](NC(=O)[C@H](CCCCNC(C)=O)NC(=O)[C@H](C)NC(=O)[C@H](CCCNC(=N)N)NC(=O)[C@@H](NC(=O)[C@H](CCCCN)NC(=O)[C@H](CCC(=O)O)NC(=O)[C@H](CCCNC(=N)N)NC(=O)CNC(=O)[C@H](CCC(=O)O)NC(=O)[C@H](CC(C)C)NC(C)=O)C(C)C)[C@@H](C)CC)C(=O)N[C@@H](CO)C(=O)N[C@H](C(=O)N[C@@H](Cc1ccccc1)C(=O)N[C@@H](CO)C(=O)NC(C)(C)C(=O)N[C@@H](CCCNC(=N)N)C(=O)N[C@@H](C)C(=O)N[C@@H](CCCCNC(C)=O)C(N)=O)[C@@H](C)O)C(=O)O)C(=O)O)C(=O)O [compound 2] (Ac-LEGREKVRAK(Ac)I[Aib][Aib]EGK([Suc-X1])STFS[Aib]RAK(Ac)-NH2) | 2.4 | 99 |
| CCCCCCCCCCCCCCCCCC(=O)N[C@@H](CCC(=O)N[C@@H](CCC(=O)N[C@@H](CCC(=O)NCCCOCCOCCOCCCNC(=O)CCC(=O)NCCCOCCOCCOCCCNC(=O)CCC(=O)NCCCOCCOCCOCCCNC(=O)CCC(=O)NCCCC[C@H](NC(=O)CNC(=O)[C@H](CCC(=O)O)NC(=O)C(C)(C)NC(=O)C(C)(C)NC(=O)[C@@H](NC(=O)[C@H](CCCCNC(C)=O)NC(=O)[C@H](C)NC(=O)[C@H](CCCNC(=N)N)NC(=O)[C@@H](NC(=O)[C@H](CCCCN)NC(=O)[C@H](CCC(=O)O)NC(=O)[C@H](CCCNC(=N)N)NC(=O)CNC(=O)[C@H](CCC(=O)O)NC(=O)[C@H](CC(C)C)NC(C)=O)C(C)C)[C@@H](C)CC)C(=O)N[C@@H](CO)C(=O)N[C@H](C(=O)N[C@@H](Cc1ccccc1)C(=O)N[C@@H](CO)C(=O)NC(C)(C)C(=O)N[C@@H](CCCNC(=N)N)C(=O)N[C@@H](CCCCN)C(=O)N[C@@H](CCCCNC(C)=O)C(N)=O)[C@@H](C)O)C(=O)O)C(=O)O)C(=O)O [compound 61] (Ac-LEGREKVRAK(Ac)I[Aib][Aib]EGK([Suc-X3])STFS[Aib]RKK(Ac)-NH2) | 0.1 | 97 |

Next, values leading:

| EC50 [nM] | Emax [%] | Structure (SMILES) |
| --- | --- | --- |
| 0.48 | 95 | CCCCCCCCCCCCCCCC(=O)N[C@@H](CCC(=O)N[C@@H](CCC(=O)N[C@@H](CCC(=O)NCCCOCCOCCOCCCNC(=O)CCC(=O)NCCCOCCOCCOCCCNC(=O)CCC(=O)NCCCOCCOCCOCCCNC(=O)CCC(=O)NCCCC[C@H](NC(=O)CNC(=O)[C@H](CCC(=O)O)NC(=O)C(C)(C)NC(=O)C(C)(C)NC(=O)[C@@H](NC(=O)[C@H](CCCCNC(C)=O)NC(=O)[C@H](C)NC(=O)[C@H](CCCNC(=N)N)NC(=O)[C@@H](NC(=O)[C@H](CCCNC(=N)N)NC(=O)[C@H](CCC(=O)O)NC(=O)[C@H](CCCNC(=N)N)NC(=O)CNC(=O)[C@H](CCC(=O)O)NC(=O)[C@H](CC(C)C)NC(C)=O)C(C)C)[C@@H](C)CC)C(=O)N[C@@H](CO)C(=O)N[C@H](C(=O)N[C@@H](Cc1c[nH]c2ccccc12)C(=O)N[C@@H](CO)C(=O)NC(C)(C)C(=O)N[C@@H](CCCNC(=N)N)C(=O)N[C@@H](CCCCN)C(=O)N[C@@H](CCCCNC(C)=O)C(N)=O)[C@@H](C)O)C(=O)O)C(=O)O)C(=O)O [compound 67] (Ac-LEGRERVRAK(Ac)I[Aib][Aib]EGK([Suc-X1])STWS[Aib]RKK(Ac)-NH2) |
| 0.78 | 97 | CCCCCCCCCCCCCCCC(=O)N[C@@H](CCC(=O)N[C@@H](CCC(=O)N[C@@H](CCC(=O)NCCCOCCOCCOCCCNC(=O)CCC(=O)NCCCOCCOCCOCCCNC(=O)CCC(=O)NCCCOCCOCCOCCCNC(=O)CCC(=O)NCCCC[C@H](NC(=O)CNC(=O)[C@H](CCC(=O)O)NC(=O)C(C)(C)NC(=O)C(C)(C)NC(=O)[C@@H](NC(=O)[C@H](CCCCNC(C)=O)NC(=O)[C@H](C)NC(=O)[C@H](CCCNC(=N)N)NC(=O)[C@@H](NC(=O)[C@H](CCCCN)NC(=O)[C@H](CCC(=O)O)NC(=O)[C@H](CCCNC(=N)N)NC(=O)CNC(=O)[C@H](CCC(=O)O)NC(=O)[C@H](CC(C)C)NC(C)=O)C(C)C)[C@@H](C)CC)C(=O)N[C@@H](CO)C(=O)N[C@H](C(=O)N[C@@H](Cc1c[nH]c2ccccc12)C(=O)N[C@@H](CO)C(=O)NC(C)(C)C(=O)N[C@@H](CCCNC(=N)N)C(=O)N[C@@H](CCCCNC(C)=O)C(=O)N[C@@H](CCCNC(=N)N)C(N)=O)[C@@H](C)O)C(=O)O)C(=O)O)C(=O)O [compound 69] (Ac-LEGREKVRAK(Ac)I[Aib][Aib]EGK([Suc-X1])STWS[Aib]RK(Ac)R-NH2) |
